Measured values: ChEMBL document CHEMBL2439958, “Inhibitory effect of oxygenated cholestan-3β-ol derivatives on the growth of Mycobacterium tuberculosis” (Bioorg Med Chem Lett, 2013)
In brackets after ≈: the same amount, converted by molar mass.

Legend:
[1] = test system: Mycobacterium tuberculosis; assay: microbe, parasite or virus in culture; type: functional; settings: H37Rv
Vero = assay: Cytotoxicity against african green monkey Vero cells by tetrazolium dye reduction assay; type: ADME, cell-based; settings: Chlorocebus sabaeus
[2] = Selectivity index, ratio of IC50 for african green monkey Vero cells to MIC90 for Mycobacterium tuberculosis H37Rv; type: functional

| Structure (SMILES) | MIC90 [1] [µM] | IC50 (Vero) [µM] | Selectivity Index [2] |
| --- | --- | --- | --- |
| CC(C)CCC[C@@H](C)[C@H]1CC[C@H]2[C@@H]3[C@@H](O)C[C@H]4C[C@@H](O)CC[C@]4(C)[C@H]3CC[C@]12C | > 128 | – | – |
| CC(=O)O[C@H]1CC[C@@]2(C)[C@@H](CC(=O)[C@@H]3[C@@H]2CC[C@]2(C)[C@@H]([C@H](C)CCCC(C)(C)O)CC[C@@H]32)C1 | > 128 | > 128 | – |
| C[C@H](CCCC(C)(C)O)[C@H]1CC[C@H]2[C@@H]3[C@@H](O)C[C@H]4C[C@@H](O)CC[C@]4(C)[C@H]3CC[C@]12C | 24 (≈ 10.1 µg/mL) | > 128 | >5.3 |
| C[C@@H](CO)CCC[C@@H](C)[C@H]1CC[C@H]2[C@@H]3CC=C4C[C@@H](O)CC[C@]4(C)[C@H]3CC[C@]12C | > 128 | – | – |
| CC(C)CCC[C@@H](C)[C@H]1CC[C@H]2[C@@H]3C(=O)C=C4C[C@@H](O)CC[C@]4(C)[C@H]3CC[C@]12C [7-OXOCHOLESTEROL] | > 128 | 75 | <0.6 |
| CC(C)CCC[C@@H](C)[C@H]1CC[C@H]2[C@@H]3[C@H](O)C[C@H]4C[C@@H](O)CC[C@]4(C)[C@H]3CC[C@]12C | > 128 | – | – |
| CO[C@H]1/C=C/O[C@@]2(C)Oc3c(C)c(O)c4c(O)c(c(/C=N/N5CCN(C)CC5)c(O)c4c3C2=O)NC(=O)/C(C)=C\C=C\[C@H](C)[C@H](O)[C@@H](C)[C@@H](O)[C@@H](C)[C@H](OC(C)=O)[C@@H]1C [RIFAMPIN] | 0.07 (≈ 0.0576 µg/mL) | – | – |
| CC(C)CCC[C@@H](C)[C@H]1CC[C@H]2[C@@H]3C(=O)C[C@H]4C[C@@H](O)CC[C@]4(C)[C@H]3CC[C@]12C | 8 (≈ 3.22 µg/mL) | 62 | 7.8 |
| C[C@H](CCCC(C)(C)O)[C@H]1CC[C@H]2[C@@H]3CC=C4C[C@@H](O)CC[C@]4(C)[C@H]3CC[C@]12C | > 128 | > 128 | – |
| CC(C)CCC[C@@H](C)[C@H]1CC[C@H]2[C@@H]3[C@H](F)C(=O)[C@H]4C[C@@H](O)CC[C@]4(C)[C@H]3CC[C@]12C | 4.6 (≈ 1.94 µg/mL) | 40 | 8.7 |
| C[C@@H]1CC[C@@]2(OC1)O[C@H]1C[C@H]3[C@@H]4CC=C5C[C@@H](O)CC[C@]5(C)[C@H]4CC[C@]3(C)[C@H]1[C@@H]2C [DISOGENIN] | > 128 | – | – |
| CC(=O)O[C@H]1CC[C@@]2(C)C(=CC(=O)[C@H]3[C@@H]4CC[C@H]([C@H](C)CCCC(C)C)[C@@]4(C)CC[C@@H]32)C1 [7-OXOCHOLESTERYL ACETATE] | > 128 | > 128 | – |
| CC(=O)O[C@H]1CC[C@@]2(C)[C@@H](CC(=O)[C@@H]3[C@@H]2CC[C@]2(C)[C@@H]([C@H](C)CCCC(C)C)CC[C@@H]32)C1 | > 128 | > 128 | – |
| NNC(=O)c1ccncc1 [ISONIAZID] | 0.4 (≈ 0.0549 µg/mL) | > 128 | >320 |
| CC(=O)O[C@H]1CC[C@@]2(C)C(=CC[C@H]3[C@@H]4CC[C@H]([C@H](C)CCCC(C)(C)O)[C@@]4(C)CC[C@@H]32)C1 | > 128 | – | – |
| C[C@H](CCCC(C)(C)O)[C@H]1CC[C@H]2[C@@H]3[C@H](O)C[C@H]4C[C@@H](O)CC[C@]4(C)[C@H]3CC[C@]12C | > 128 | – | – |
| C[C@@H](CO)CCC[C@@H](C)[C@H]1[C@@H](O)C[C@H]2[C@@H]3CC=C4C[C@@H](O)CC[C@]4(C)[C@H]3CC[C@]12C | 6 (≈ 2.51 µg/mL) | > 128 | >21 |
| CC(C)CCC[C@@H](C)[C@H]1CC[C@H]2[C@@H]3CC(=O)[C@H]4C[C@@H](O)CC[C@]4(C)[C@H]3CC[C@]12C [5alpha-CHOLESTAN-3beta-OL-6-ONE] | 6 (≈ 2.42 µg/mL) | 92 | 15.3 |
| CC(C)CCC[C@@H](C)[C@H]1CC[C@H]2[C@@H]3CC(=O)[C@H]4C[C@@H](O[Si](C)(C)C)CC[C@]4(C)[C@H]3CC[C@]12C | 3.5 (≈ 1.66 µg/mL) | 38 | 10.9 |
| CC(=O)O[C@H]1CC[C@@]2(C)C(=CC(=O)[C@H]3[C@@H]4CC[C@H]([C@H](C)CCCC(C)(C)O)[C@@]4(C)CC[C@@H]32)C1 | > 128 | > 128 | – |
| CC(C)CCC[C@@H](C)[C@H]1CC[C@H]2[C@@H]3[C@H](F)[C@@H](O)[C@H]4C[C@@H](O)CC[C@]4(C)[C@H]3CC[C@]12C | > 128 | 41 | <0.4 |
